# Measured values from patent US8222270B2 (Medicis Pharmaceutical Corporation, priority 2008, dated 2012).
# Several values for one entry are separate records, joined by “and”; a condition that tells them apart may be missing. Equal entries are not always repeated.
# Assays:
# [1] = Stability of calibration standards in spent receiver fluid; type: physicochemical; settings: vs T = 0
# [2] = Protocol: A combined fertility and peri- and post-natal development study was conducted in rats.
# [3] = set-up: species or system mice; settings: CD-1, mouse, in vivo, 2 years
# [4] = Intravenous embryofetal development study; type: in vivo, rabbits
# [5] = Physicochemical properties of the drug substance (solubility, pKa)
# Protocol: Physicochemical Properties: • Physical Form: Crystalline solid that varies in colour from white to off-white or buff. […] It can be made soluble to the extent of at least 100 mg/mL in methanol (as a salt) upon the addition of a few drops of hydrochloric or acetic acid.
# [6] = Oral embryofetal development study; type: in vivo, rats
# Protocol: Systemic embryofetal development studies were conducted in rats and rabbits.
# [7] = Oral (gavage) carcinogenicity study, 24 months
# [8] = 52-week dermal photoco-carcinogenicity study; type: in vivo, hairless mice; settings: 3×/week, 40 weeks, concurrent UV radiation
# Source text: In a 52-week dermal photoco-carcinogenicity study, the median time to onset of skin tumor formation was decreased in hairless mice following chronic topical dosing (3×/week; 40 weeks of treatment followed by 12 weeks of observation) with concurrent exposure to UV radiation (5 days per week) with vehicle alone.
# Vehicle cream enhanced UVR-induced skin tumour development.
# [9] = Repeat dose oral toxicity, 6 months; type: in vivo, rats; settings: dosed daily for 6 months
# Protocol: The adverse effects observed for the high doses (10-30 mg/kg) in repeat dose oral toxicity studies in rats and monkeys could be related to exaggerated pharmacological effects of excessive cytokines induction and lymphoid stimulation: reduced body weight gains, anaemia, serum protein changes and death. […] An oral no-adverse-effect level of 3 mg/kg/day was determined in both rats and monkeys dosed daily for 6 months.
# [10] = Acute single dose toxicity (oral, intraperitoneal, subcutaneous, intravenous); type: in vivo
# [11] = tested on: interleukin-1 antagonist, interferon-α, 2′5′-oligoadenylate synthetase; experiment: Biomarker response in 58 patients with AK treated 3 times per week for 16 weeks; type: in vivo, human; settings: 16 weeks of dosing
# [12] = Repeat dose dermal toxicity studies; type: in vivo, rats
# Protocol: A dose-related decrease in body weight of male rats was also observed. No systemic toxicity was found at doses up to 5 mg/kg three days per week for 4 weeks or at doses up to 2.5 mg/kg three days per week for 16 weeks.
smiles,measurement,setting,value
"CC(C)Cn1cnc2c(N)nc3ccccc3c21 [imiquimod, 1-(2-methylpropyl)-1H-imidazo[4,5-c]quinolin-4-amine]",48 h % recovered in Spent receiver fluid,"[1]; Standard 105.5 μg/ml, Epidermal sheet, Fridge",90.465%
same,48 h % recovered in Spent receiver fluid,"[1]; Standard 105.5 μg/ml, Epidermal sheet, RT",92.089%
same,48 h % recovered in Spent receiver fluid,"[1]; Standard 105.5 μg/ml, Full thickness + placebo, 37° C.",91.704%
same,48 h % recovered in Spent receiver fluid,"[1]; Standard 105.5 μg/ml, Full thickness + placebo, Fridge",88.242%
same,48 h % recovered in Spent receiver fluid,"[1]; Standard 105.5 μg/ml, Full thickness + placebo, RT",88.546%
same,48 h % recovered in Spent receiver fluid,"[1]; Standard 105.5 μg/ml, Full thickness, 37° C.",92.278%
same,48 h % recovered in Spent receiver fluid,"[1]; Standard 105.5 μg/ml, Full thickness, Fridge",90.545%
same,48 h % recovered in Spent receiver fluid,"[1]; Standard 105.5 μg/ml, Full thickness, RT",92.275%
same,48 h % recovered in Spent receiver fluid,"[1]; Standard […] μg/ml, Epidermal sheet + placebo, 37° C.",89.945%
same,48 h % recovered in Spent receiver fluid,"[1]; Standard […] μg/ml, Epidermal sheet + placebo, Fridge",84.046%
same,48 h % recovered in Spent receiver fluid,"[1]; Standard […] μg/ml, Epidermal sheet + placebo, RT",85.095%
same,48 h % recovered in Spent receiver fluid,"[1]; Standard […] μg/ml, Epidermal sheet, 37° C.",97.099%
same,48 h % recovered in Spent receiver fluid,"[1]; Standard […] μg/ml, Epidermal sheet, Fridge",93.180%
same,48 h % recovered in Spent receiver fluid,"[1]; Standard […] μg/ml, Epidermal sheet, RT",94.971%
same,48 h % recovered in Spent receiver fluid,"[1]; Standard […] μg/ml, Full thickness + placebo, 37° C.",90.798%
same,48 h % recovered in Spent receiver fluid,"[1]; Standard […] μg/ml, Full thickness + placebo, Fridge",88.307%
same,48 h % recovered in Spent receiver fluid,"[1]; Standard […] μg/ml, Full thickness + placebo, RT",86.897%
same,48 h % recovered in Spent receiver fluid,"[1]; Standard […] μg/ml, Full thickness, 37° C.",97.826%
same,48 h % recovered in Spent receiver fluid,"[1]; Standard […] μg/ml, Full thickness, Fridge",94.989%
same,48 h % recovered in Spent receiver fluid,"[1]; Standard […] μg/ml, Full thickness, RT",93.522%
same,Exposure multiple at dose without teratogenicity,[2]; 3 mg/kg/day,27 ×MRHD based on AUC comparisons
same,Dose up to which no impairment of reproduction was demonstrated,"[2]; daily oral, throughout mating, gestation, parturition and lactation",8 times recommended human dose on a mg/m^2 basis
same,Dose at which bent limb bones were noted in the F1 fetuses,[2]; in the absence of maternal toxicity,6 mg/kg/day
same,Dose with no treatment related effects on teratogenicity,[2]; oral,3 mg/kg/day
same,"Carcinogenic effect, female mice",[3]; female,no evidence of a carcinogenic effect
same,"Liver tumours, male mice at the highest dose vs unexposed controls",[3]; male,Liver tumours were increased
same,Teratogenicity,"[4]; female, rabbit, in vivo",not teratogenic
same,Dose with no treatment related effects on embryofetal toxicity or teratogenicity,"[4]; intravenous, gestational days 6-18",2 mg/kg/day and 1 mg/kg/day
same,Solubility in fatty acids such as oleic acid and isostearic acid,[5],Soluble
same,pKa,[5]; UV spectroscopy and pH-solubility,~7.5
same,Solubility in most common organic solvents and in aqueous systems,[5]; except at extremely low pH,Practically insoluble
same,solubility,"[5]; methanol, upon addition of a few drops of hydrochloric or acetic acid, read-out: Solubility in methanol (as a salt)",≥ 100 mg/mL
same,Exposure multiple at dose with fetal effects,"[6]; female, rat, in vivo",427 ×MRHD based on AUC comparisons
same,Exposure multiple at no-effect dose,"[6]; female, rat, in vivo",83 ×MRBD based on AUC comparisons
same,Teratogenicity,"[6]; female, rat, in vivo",not teratogenic
same,High maternally toxic dose with reduced pup weights and delayed ossification,"[6]; female, rat, in vivo, 20 mg/kg/day",28 times human dose on a mg/m^2 basis
same,Dose at which fetal effects were noted (in the presence of maternal toxicity),"[6]; oral, gestational days 6-15",20 mg/kg/day
same,Dose with no treatment related effects on embryofetal toxicity or teratogenicity,"[6]; oral, gestational days 6-15",5 mg/kg/day
same,"Exposure multiple, male and female rats",[7]; 3 mg/kg 7×/week,29 ×MRHD
same,"Exposure multiple, male rats",[7]; 4 mg/kg 2×/week,45 ×MRHD
same,"Exposure multiple, female rats",[7]; 6 mg/kg 2×/week,57 ×MRHD based on AUC comparisons
same,"Highest dose tested without treatment related tumors, female rats","[7]; 2×/week, 24 months",6 mg/kg
same,"Highest dose tested without treatment related tumors, male rats","[7]; 2×/week, 24 months",4 mg/kg
same,"Highest dose tested without treatment related tumors, male and female rats","[7]; 7×/week, 24 months",3 mg/kg
same,"Carcinogenic effect, male and female rats","[7]; two-year bioassay, up to 3 mg/kg orally per day",no evidence of a carcinogenic effect
same,Effect on tumor development beyond the vehicle effect,[8],No additional effect on tumor development beyond the vehicle effect
same,Oral no-adverse-effect level,[9],3 mg/kg/day
same,LD50,"[10]; Monkey, intravenous bolus",>6 mg/kg
same,LD50,"[10]; Monkey, intravenous infusion",≈8 mg/kg
same,LD50,"[10]; Monkey, oral",>200 mg/kg
same,LD50,"[10]; Rat, subcutaneous",≈20 mg/kg
same,Single dose toxicity signs,"[10]; oral, intraperitoneal, subcutaneous or intravenous, lethal doses",central nervous system (CNS) stimulation and convulsions
same,"2′5′-oligoadenylate synthetase, median concentration after multiple dosing vs single dose",[11],approximately 3 fold
same,"Interferon-α, median concentration after multiple dosing vs single dose",[11],≤ 3 fold
same,"Interleukin-1 antagonist, median concentration after multiple dosing vs single dose",[11],< 2 fold
same,Dose up to which no systemic toxicity was found,[12]; three days per week for 4 weeks,5 mg/kg
same,Dose up to which no systemic toxicity was found,[12]; three days per week for 16 weeks,2.5 mg/kg
